This is an account of results in patent publication US7432045B2 (priority 2003, dated 2008).

Where two headings read alike, the source gives them in different places. Peptide text beside a SMILES is read from it.

Usually IC50 stands for the concentration that gives 50% inhibition.

The subject of one assay is HSV-1 KOS. Nature of the assay: Plaque reduction assay. The assay is classed as cell-based. Here is the method:
Cell culture and virus: The procedures for growing Vero cells and preparing high titer stocks of HSV-1 KOS as described in Grau et al., Invest. Ophthal. and Vis. Sci. 30: 2474 (1989) were utilized. Vero cells were maintained in carbonate-buffered DMEM supplemented with 5% calf serum and 5% fetal bovine serum (regular medium). For some studies, cells were switched to serum-free DMEM buffered with 25 mM HEPES (pH 7.4) and allowed to adapt to that medium for 30 min prior to experimental treatments. Vero cells were seeded into wells (0.28 cm^2) of microtiter plates either at 3.5×10^4 cells/well for use 1 day later (8×10^4 cells/well) or at 1×10^4 cells/well for use 3 days later (2×10^5 cells/well).
Plaque reduction assay: Confluent Vero cell cultures in microtiter plates were infected for 1 hour at 37° C. in 40 μL of medium. Except where indicated, peptide treatments in 40 μL of medium lasted from 1 hour before through 1 hour after infection. At the end of the adsorption period, the cultures were re-fed with 100 μL of regular medium. Plaque formation was scored 2 days later and the number of plaques scored per well was normalized to the number counted in the absence of peptide. Using an ocular micrometer, plaque size (π/2×L×S) was determined by measuring the largest plaque diameter (L) and the diameter at a 90° angle to that (S). The size of each of the first 40 scored plaques was measured except when a plaque included less than 10 rounded cells or touched the side of the well.
In general terms: In a plaque reduction assay, fewer plaques than in the control indicate reduced infectivity or spread.

Assay [1] concerns HSV-1 KOS mutant hrR3. To be noted: read-out: IC50 (lacZ+ cells).
In assay [2] the test system is HSV-1 KOS mutant hrR3. Nature of the assay: Inactivation of pre-adsorbed virus (virus inactivation). The assay is classed as cell-based.

As to `CC(C)C[C@H](NC(=O)[C@H](C)NC(=O)[C@H](CC(C)C)NC(=O)[C@H](CC(C)C)NC(=O)[C@@H](NC(=O)[C@H](C)NC(=O)[C@@H]1CCCN1C(=O)[C@H](CC(C)C)NC(=O)[C@H](CC(C)C)NC(=O)[C@H](C)NC(=O)[C@@H](NC(=O)[C@H](C)NC(=O)[C@H](C)NC(=O)[C@H](CCCCN)NC(=O)[C@H](CCCCN)NC(=O)[C@H](CCCNC(=N)N)NC(=O)[C@@H](N)CCCNC(=N)N)C(C)C)C(C)C)C(=O)N[C@@H](CC(C)C)C(=O)N[C@@H](C)C(=O)N1CCC[C@H]1C(=O)O` [EB] (H-RRKKAAVALLPAVLLALLAP-OH), the “reduction of mean plaque size” value with HSV-1 KOS (25 μM added 1 hour post-infection) was found to be 70%. Moreover, the mean plaque size in the assay with HSV-1 KOS (25 μM added 1 hour post-infection, untreated 66,000±6200) is 6900±2600 μm^2. In addition, the “combined mean plaque size after transient treatments” value in the assay with HSV-1 KOS (6 and 12 μM, up to 1 hour post-infection) is 68,000±11,000 μm^2. In addition, the “fold lower concentration blocking infections compared to EBX” value is 100 fold in the assay with HSV-1 KOS (absence of serum, FIG. 1B) and 10 fold with HSV-1 KOS (presence of serum (FIG. 1A)). Also, the IC50 in the assay with HSV-1 KOS (absence of serum, FIG. 1B, read-out: antiviral IC50 (plaque formation)) worked out at 0.7 µM; with HSV-1 KOS (present continuously after infection, read-out: inhibition of plaque expansion IC50), 12 µM; in the assay with HSV-1 KOS (present continuously starting 1 hour post-infection, read-out: plaque number IC50), 24 µM; in the assay with HSV-1 KOS (present during infection and 1 hour pre- and post-infection, read-out: plaque number IC50), 5.5 µM; with HSV-1 KOS mutant hrR3 [1] (virus input 19 pfu/well), 660 nM; in the assay on HSV-1 KOS mutant hrR3 [1] (virus input 210 pfu/well), 1200 nM. Moreover, the IC50 in the assay on HSV-1 KOS mutant hrR3 [1] (virus input 5700 pfu/well) came to 11000 nM.

Take `N=C(N)NCCC[C@H](NC(=O)CN)C(=O)N[C@@H](CCCCN)C(=O)N[C@@H](CCCCN)C(=O)N[C@@H](CCCNC(=N)N)C(=O)N[C@@H](CCCNC(=N)N)C(=O)N[C@@H](CCC(N)=O)C(=O)N[C@@H](CCCNC(=N)N)C(=O)N[C@@H](CCCNC(=N)N)C(=O)N[C@@H](CCCNC(=N)N)C(=O)N[C@@H](CS)C(=O)O` [TAT-C, NH2-GRKKRRQRRRC-COOH]: the IC50 stood at 11 µM with HSV-1 KOS mutant hrR3 [2] (33° C., read-out: Inactivation of Pre-Adsorbed Virus 33° C. IC50); 11 µM with HSV-1 KOS mutant hrR3 [2] (33° C., read-out: Virus Inactivation IC50 (pre-adsorbed virus)); 11 µM in the assay on HSV-1 KOS mutant hrR3 [2] (33° C., read-out: virus inactivation IC50); 5.2 µM with HSV-1 KOS mutant hrR3 [2] (37° C., read-out: Inactivation of Pre-Adsorbed Virus 37° C. IC50).
